From patent publication US9453062B2, “Glucose dependent insulinotropic polypeptide analogs, pharmaceutical compositions and use thereof” (Beijing Hanmi Pharmaceutical Co., Ltd., priority 2011, dated 2016)
Where a SMILES comes first, the peptide text is derived from it. Bridges are numbered along the chain shown (N, C = ends). Where no end group is shown, it is not given here. [ ]: non-standard residue; d: D form. The star is where a group is joined. Palmitoyl = CCCCCCCCCCCCCCCC(=O)*; Nle = CCCC[C@H](N)C(=O)O; Aib = CC(C)(N)C(=O)O

What was measured:
[1] = target: T1, hGLP-1R (Homo sapiens, UniProt P43220); experiment: hGLP-1R-mediated cAMP induction assay in CHO cell line; format: cell-based; settings: for EC50 / GLP-1 Receptor Relative Potency: Table 3; for EC50: CHO hGLP1R cells; for GLP-1 Receptor Relative Potency: against native GLP-1;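 on all read-outs here: CHO cells expressing human GLP-1R, treated 30 min at 37 °C, intracellular cAMP measured by competitive fluorescent immunoassay and converted via a cAMP standard curve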
T1 construct: expressed in transfected cells; host or cells: CHO
T1 sequence (P43220 24-463): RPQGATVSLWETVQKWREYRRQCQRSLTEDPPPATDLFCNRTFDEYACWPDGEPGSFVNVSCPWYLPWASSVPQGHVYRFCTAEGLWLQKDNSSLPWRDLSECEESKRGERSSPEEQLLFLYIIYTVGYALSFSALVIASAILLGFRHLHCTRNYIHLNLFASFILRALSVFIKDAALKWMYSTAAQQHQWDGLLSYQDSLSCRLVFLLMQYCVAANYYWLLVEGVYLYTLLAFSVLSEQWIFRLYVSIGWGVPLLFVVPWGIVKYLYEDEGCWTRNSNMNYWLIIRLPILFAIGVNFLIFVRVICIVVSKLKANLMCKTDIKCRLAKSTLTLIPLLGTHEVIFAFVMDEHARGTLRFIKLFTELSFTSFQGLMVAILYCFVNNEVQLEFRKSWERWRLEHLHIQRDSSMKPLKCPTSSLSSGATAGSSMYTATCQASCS
From the text: The cAMP in the sample or standard competes with horseradish peroxidase (HRP)-labeled cAMP conjugate for binding sites on the anti-cAMP antibodies. In the absence of cAMP, most of the HRP-cAMP conjugate is bound to the antibody. Increasing concentrations of cAMP competitively decrease the amount of bound conjugate, thus decreasing measured HRP activity.
Assay kit: CatchPoint™ Cyclic-AMP Fluorescent Assay Kit (Molecular Devices, Product # R8088)
Cell lines: CHO hGLP1R, CHO hGIPR
Cell seeding: CHO hGLP1R or CHO hGIPR cells: 10,000 cells/well/100 uL at 37° C. 5% CO2 overnight.
Gently aspirate off media and wash the cells with KRBG Buffer, 100 uL/well.
Incubate the plate for 10 min at room temperature. Then add the KRBG buffer with 3× final concentration of the tested samples (5-foled series diluted from 5,000 nM), 50 uL/well. Incubate the plate at 37° C. 5% CO2 for 30 min.
Add 50 uL of Lysis buffer to each well and put the plate on a shaker for 10 min.
Place 40 uL of samples and analyze in appropriate wells. And test the cAMP concentration in each sample by following the manufacture's instruction.
Detect the fluorescence signal at Ex: 490 nm and Em: 530 nm. Transfer the FI signal to cAMP concentration by the cAMP standard curve. The Dose-response curve and EC50 were obtained by logistic fitting of Origin 8.

[2] = target: T2, hGIPR (Homo sapiens, UniProt P48546); experiment: hGIPR-mediated cAMP induction assay in CHO cell line; format: cell-based; settings: Table 3; for EC50: CHO hGIPR cells; for GIP Receptor Relative Potency: against native GIP
T2 construct: expressed in transfected cells; host or cells: CHO
T2 sequence (P48546 22-466): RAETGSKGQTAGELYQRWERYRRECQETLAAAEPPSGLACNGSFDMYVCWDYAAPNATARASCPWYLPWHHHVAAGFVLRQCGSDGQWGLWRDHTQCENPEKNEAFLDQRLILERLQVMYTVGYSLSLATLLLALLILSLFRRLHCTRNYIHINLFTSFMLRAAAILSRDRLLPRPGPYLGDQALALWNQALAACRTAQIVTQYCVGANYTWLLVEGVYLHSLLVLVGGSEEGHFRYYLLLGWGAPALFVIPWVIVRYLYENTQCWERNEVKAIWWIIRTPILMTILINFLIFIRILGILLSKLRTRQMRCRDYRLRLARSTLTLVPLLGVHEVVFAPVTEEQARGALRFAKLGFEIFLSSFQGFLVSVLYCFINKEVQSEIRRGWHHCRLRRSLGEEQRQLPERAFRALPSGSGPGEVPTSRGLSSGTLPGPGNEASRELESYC

Compound | EC50 [1] [nM] | GLP-1 Receptor Relative Potency [1] | EC50 [2] [nM] | GIP Receptor Relative Potency [2] | GLP-1R activation (GLP-1 activity) against native GLP-1 [1]
CC[C@H](C)[C@H](NC(=O)[C@H](Cc1ccccc1)NC(=O)[C@H](CCC(=O)O)NC(=O)[C@H](CCCNC(=N)N)NC(=O)[C@@H](NC(=O)[C@H](C)NC(=O)[C@H](CCC(=O)O)NC(=O)[C@H](CCCCN)NC(=O)[C@H](CCC(=O)O)NC(=O)[C@H](CCSC)NC(=O)[C@H](Cc1ccc(O)cc1)NC(=O)[C@@H](NC(=O)[C@H](CO)NC(=O)[C@H](Cc1ccc(O)cc1)NC(=O)[C@H](CC(=O)O)NC(=O)[C@H](CO)NC(=O)[C@@H](NC(=O)[C@H](Cc1ccccc1)NC(=O)[C@@H](NC(=O)CNC(=O)[C@H](CCC(=O)O)NC(=O)C(C)(C)NC(=O)[C@@H](N)Cc1ccc(O)cc1)[C@@H](C)O)[C@@H](C)O)[C@@H](C)CC)C(C)C)C(=O)N[C@@H](C)C(=O)N[C@@H](Cc1c[nH]c2ccccc12)C(=O)N[C@@H](CC(C)C)C(=O)N[C@H](C(=O)N[C@@H](CCCCN)C(=O)NCC(=O)NCC(=O)N1CCC[C@H]1C(=O)N[C@@H](CO)C(=O)N[C@@H](CO)C(=O)NCC(=O)N[C@@H](C)C(=O)N1CCC[C@H]1C(=O)N1CCC[C@H]1C(=O)N1CCC[C@H]1C(=O)N[C@@H](CO)C(N)=O)C(C)C [Compound 051] (H-Y[Aib]EGTFTSDYSIYMEKEAVREFIAWLVKGGPSSGAPPPS-NH2; N-terminus assumed) | 0.599 | 159.8 | 0.19 | 89.5 | 
CC[C@H](C)[C@H](NC(=O)[C@H](Cc1ccccc1)NC(=O)[C@H](CCC(=O)O)NC(=O)[C@H](CCCNC(=N)N)NC(=O)[C@@H](NC(=O)[C@H](C)NC(=O)[C@H](CCC(=O)O)NC(=O)[C@H](CCCCN)NC(=O)[C@H](CCC(=O)O)NC(=O)[C@H](CCSC)NC(=O)[C@H](Cc1ccc(O)cc1)NC(=O)[C@H](CCC(=O)O)NC(=O)[C@H](CO)NC(=O)[C@H](Cc1ccc(O)cc1)NC(=O)[C@H](CC(=O)O)NC(=O)[C@H](CO)NC(=O)[C@@H](NC(=O)[C@H](Cc1ccccc1)NC(=O)[C@@H](NC(=O)CNC(=O)[C@H](CCC(=O)O)NC(=O)C(C)(C)NC(=O)[C@@H](N)Cc1ccc(O)cc1)[C@@H](C)O)[C@@H](C)O)C(C)C)C(=O)N[C@@H](C)C(=O)N[C@@H](Cc1c[nH]c2ccccc12)C(=O)N[C@@H](CC(C)C)C(=O)N[C@H](C(=O)N[C@@H](CCCCN)C(=O)NCC(N)=O)C(C)C [Compound 052-1] (H-Y[Aib]EGTFTSDYSEYMEKEAVREFIAWLVKG-NH2; N-terminus assumed) | 2.5 |  | 0.57 | 36.8 | 
CC[C@H](C)[C@H](NC(=O)[C@H](Cc1ccccc1)NC(=O)[C@H](CCC(=O)O)NC(=O)[C@H](CCCNC(=N)N)NC(=O)[C@@H](NC(=O)[C@H](C)NC(=O)[C@H](CCC(=O)O)NC(=O)[C@@H]1CCCCNC(=O)CC[C@H](NC(=O)[C@H](CO)NC(=O)[C@H](Cc2ccc(O)cc2)NC(=O)[C@H](CC(=O)O)NC(=O)[C@H](CO)NC(=O)[C@@H](NC(=O)[C@H](Cc2ccccc2)NC(=O)[C@@H](NC(=O)CNC(=O)[C@H](CCC(=O)O)NC(=O)C(C)(C)NC(=O)[C@@H](N)Cc2ccc(O)cc2)[C@@H](C)O)[C@@H](C)O)C(=O)N[C@@H](Cc2ccc(O)cc2)C(=O)N[C@@H](CCSC)C(=O)N[C@@H](CCC(=O)O)C(=O)N1)C(C)C)C(=O)N[C@@H](C)C(=O)N[C@@H](Cc1c[nH]c2ccccc12)C(=O)N[C@@H](CC(C)C)C(=O)N[C@H](C(=O)N[C@@H](CCCCN)C(=O)NCC(N)=O)C(C)C [Compound 052-2] (H-Y[Aib]EGTFTSDYSEYMEKEAVREFIAWLVKG-NH2; lactam 12-16) |  | 132.8 |  | 146.8 | 
CC[C@H](C)[C@H](NC(=O)[C@H](Cc1ccccc1)NC(=O)[C@H](CCC(=O)O)NC(=O)[C@@H]1CCC(=O)NCCCC[C@H](NC(=O)[C@H](CCC(=O)O)NC(=O)[C@H](CCSC)NC(=O)[C@H](Cc2ccc(O)cc2)NC(=O)[C@@H](NC(=O)[C@H](CO)NC(=O)[C@H](Cc2ccc(O)cc2)NC(=O)[C@H](CC(=O)O)NC(=O)[C@H](CO)NC(=O)[C@@H](NC(=O)[C@H](Cc2ccccc2)NC(=O)[C@@H](NC(=O)CNC(=O)[C@H](CCC(=O)O)NC(=O)C(C)(C)NC(=O)[C@@H](N)Cc2ccc(O)cc2)[C@@H](C)O)[C@@H](C)O)[C@@H](C)CC)C(=O)N[C@@H](CCC(=O)O)C(=O)N[C@@H](C)C(=O)N[C@@H](C(C)C)C(=O)N1)C(=O)N[C@@H](C)C(=O)N[C@@H](Cc1c[nH]c2ccccc12)C(=O)N[C@@H](CC(C)C)C(=O)N[C@H](C(=O)N[C@@H](CCCCN)C(=O)NCC(N)=O)C(C)C [Compound 053-2] (H-Y[Aib]EGTFTSDYSIYMEKEAVEEFIAWLVKG-NH2; lactam 16-20; N-terminus assumed) | 2.95 | 37 |  | 35.4 | 
CC[C@H](C)[C@H](NC(=O)[C@H](CO)NC(=O)[C@H](Cc1ccc(O)cc1)NC(=O)[C@H](CC(=O)O)NC(=O)[C@H](CO)NC(=O)[C@@H](NC(=O)[C@H](Cc1ccccc1)NC(=O)[C@@H](NC(=O)CNC(=O)[C@H](CCC(=O)O)NC(=O)C(C)(C)NC(=O)[C@@H](N)Cc1ccc(O)cc1)[C@@H](C)O)[C@@H](C)O)C(=O)N[C@@H](Cc1ccc(O)cc1)C(=O)N[C@@H](CCSC)C(=O)N[C@@H](CCC(=O)O)C(=O)N[C@@H](CCCCN)C(=O)N[C@@H](CCC(=O)O)C(=O)N[C@@H](C)C(=O)N[C@H](C(=O)N[C@@H](CCCNC(=N)N)C(=O)N[C@@H](CCC(=O)O)C(=O)N[C@@H](Cc1ccccc1)C(=O)N[C@H](C(=O)N[C@@H](CCC(=O)O)C(=O)N[C@@H](Cc1c[nH]c2ccccc12)C(=O)N[C@@H](CC(C)C)C(=O)N[C@H](C(=O)N[C@@H](CCCCN)C(=O)NCC(N)=O)C(C)C)[C@@H](C)CC)C(C)C [Compound 054-1] (H-Y[Aib]EGTFTSDYSIYMEKEAVREFIEWLVKG-NH2) | 2.99 |  | 0.27 | 77.7 | 
CC[C@H](C)[C@H](NC(=O)[C@H](Cc1ccccc1)NC(=O)[C@H](CCC(=O)O)NC(=O)[C@H](CCCNC(=N)N)NC(=O)[C@@H](NC(=O)[C@H](C)NC(=O)[C@H](CCC(=O)O)NC(=O)[C@H](CCCCN)NC(=O)[C@H](CCC(=O)O)NC(=O)[C@H](CCSC)NC(=O)[C@H](Cc1ccc(O)cc1)NC(=O)[C@@H](NC(=O)[C@H](CO)NC(=O)[C@H](Cc1ccc(O)cc1)NC(=O)[C@H](CC(=O)O)NC(=O)[C@H](CO)NC(=O)[C@@H](NC(=O)[C@H](Cc1ccccc1)NC(=O)[C@@H](NC(=O)CNC(=O)[C@H](CCC(=O)O)NC(=O)C(C)(C)NC(=O)[C@@H](N)Cc1ccc(O)cc1)[C@@H](C)O)[C@@H](C)O)[C@@H](C)CC)C(C)C)C(=O)N[C@@H](C)C(=O)N[C@@H](Cc1c[nH]c2ccccc12)C(=O)N[C@@H](CC(C)C)C(=O)N[C@H](C(=O)N[C@@H](CCCCN)C(=O)NCC(=O)N[C@@H](CCCCN)C(=O)N[C@@H](CCCCN)C(=O)N[C@@H](CCCCN)C(=O)N[C@@H](CCCCN)C(=O)N[C@@H](CCCCN)C(N)=O)C(C)C [Compound 060] (H-Y[Aib]EGTFTSDYSIYMEKEAVREFIAWLVKGKKKKK-NH2; N-terminus assumed) |  | 36.8 |  | 8.4 | 
CC[C@H](C)[C@H](NC(=O)[C@H](Cc1ccccc1)NC(=O)[C@H](CCC(=O)O)NC(=O)[C@H](CCCNC(=N)N)NC(=O)[C@@H](NC(=O)[C@H](C)NC(=O)[C@H](CCC(=O)O)NC(=O)[C@H](CCCCN)NC(=O)[C@H](CCC(=O)O)NC(=O)[C@H](CCSC)NC(=O)[C@H](Cc1ccc(O)cc1)NC(=O)[C@@H](NC(=O)[C@H](CO)NC(=O)[C@H](Cc1ccc(O)cc1)NC(=O)[C@H](CC(=O)O)NC(=O)[C@H](CO)NC(=O)[C@@H](NC(=O)[C@H](Cc1ccccc1)NC(=O)[C@@H](NC(=O)CNC(=O)[C@H](CCC(=O)O)NC(=O)C(C)(C)NC(=O)[C@@H](N)Cc1ccc(O)cc1)[C@@H](C)O)[C@@H](C)O)[C@@H](C)CC)C(C)C)C(=O)N[C@@H](C)C(=O)N[C@@H](Cc1c[nH]c2ccccc12)C(=O)N[C@@H](CC(C)C)C(=O)N[C@H](C(=O)N[C@@H](CCCCN)C(=O)NCC(=O)NCC(=O)N1CCC[C@H]1C(=O)N[C@@H](CO)C(=O)N[C@@H](CO)C(=O)NCC(=O)N[C@@H](C)C(=O)N1CCC[C@H]1C(=O)N1CCC[C@H]1C(=O)N1CCC[C@H]1C(=O)N[C@@H](CO)C(=O)N[C@@H](CCCCN)C(N)=O)C(C)C [Compound 066] | 2.5 | 43.7 |  | 50 | 
CCCCCCCCCCCCCCCC(=O)NCCCC[C@H](NC(=O)[C@@H](NC(=O)[C@H](C)NC(=O)[C@H](CCC(=O)O)NC(=O)[C@H](CCCCN)NC(=O)[C@H](CCC(=O)O)NC(=O)[C@H](CCSC)NC(=O)[C@H](Cc1ccc(O)cc1)NC(=O)[C@@H](NC(=O)[C@H](CO)NC(=O)[C@H](Cc1ccc(O)cc1)NC(=O)[C@H](CC(=O)O)NC(=O)[C@H](CO)NC(=O)[C@@H](NC(=O)[C@H](Cc1ccccc1)NC(=O)[C@@H](NC(=O)CNC(=O)[C@H](CCC(=O)O)NC(=O)C(C)(C)NC(=O)[C@@H](N)Cc1ccc(O)cc1)[C@@H](C)O)[C@@H](C)O)[C@@H](C)CC)C(C)C)C(=O)N[C@@H](CCC(=O)O)C(=O)N[C@@H](Cc1ccccc1)C(=O)N[C@H](C(=O)N[C@@H](C)C(=O)N[C@@H](Cc1c[nH]c2ccccc12)C(=O)N[C@@H](CC(C)C)C(=O)N[C@H](C(=O)N[C@@H](CCCCN)C(=O)NCC(N)=O)C(C)C)[C@@H](C)CC [Compound 067] (H-Y[Aib]EGTFTSDYSIYMEKEAVK(Palmitoyl)EFIAWLVKG-NH2) |  | 13.9 |  | 4.6 | 
Tyr-Aib-Glu-Gly-Thr-Phe-Thr-Ser-Asp-Tyr-Ser-Ile-Tyr-Nle-Glu-Lys-Glu-Ala-Gln-Gln-Asp-Phe-Val-Asn-Trp-Leu-Leu-Ala-Gln(NH2) (Y[Aib]EGTFTSDYSIY[Nle]EKEAQQDFVNWLLAQ-NH2) [Analog 020] |  |  |  |  | less than 1%
